{"source": "patent US20260234403A1", "about": "“PHOTOACTIVE FLUORESCENT COMPOUNDS AND USE THEREOF FOR LABELING OF PROTEINS” (EIKON THERAPEUTICS, INC., priority 2023, published 2026)", "test_system": "Wild-type (WT) U2OS cells", "test": "Reduction in nonspecific labeling of WT cells (number of tracks vs PA-JF549)", "format": "cell-based", "settings": "100 nM, 1 hr, ratio with PA-JF549 in the numerator", "procedure": "Using the methods described in Tables 4a and 4b above, labelling specificity of the compound of Examples 1-28 was measured and compared to PA-JF549. U2OS cells wild type or expressing ER-HaloTag fusion were incubated with PA-JF549 or Examples 1-28 for 1 hr. […] Labeling specificity, as measured by the fold reduction in nonspecific labeling of WT cells, was calculated by number of tracks measured in WT cells for Examples 1-28 compared to the number of tracks in WT cells for PA-JF549, expressed as the ratio with PA-JF549 in the numerator.", "key": {"[1]": {"settings": "Table 4b, Example 19 with 642 nm light"}}, "data": [{"molecule": "1,1′-(6-((2-(2-((6-chlorohexyl)oxy)ethoxy)ethyl)carbamoyl)-2-diazo-3-oxo-2,3-dihydrospiro[indene-1,9′-xanthene]-3′,6′-diyl)bis(azetidine-3-carboxamide [Example 20]", "values": [{"measurement": "Fold reduction in nonspecific labeling", "setting": "[1]", "value": ">10"}]}, {"molecule": "CN(C)C(=O)C1CN(c2ccc3c(c2)Oc2cc(N4CC(C(=O)N(C)C)C4)ccc2C32C(=[N+]=[N-])C(=O)c3ccc(C(=O)NCc4ccc(COc5nc(N)nc6nc[nH]c56)cc4)cc32)C1", "note": "[Example 5, 1,1′-(6-((4-(((2-amino-7H-purin-6-yl)oxy)methyl)benzyl)carbamoyl)-2-diazo-3-oxo-2,3-dihydrospiro[indene-1,9′-xanthene]-3′,6′-diyl)bis(N,N-dimethylazetidine-3-carboxamide)]", "values": [{"measurement": "Fold reduction in nonspecific labeling", "setting": "Table 4a", "value": ">10"}, {"measurement": "Fold reduction in nonspecific labeling", "setting": "[1]", "value": ">10"}]}, {"molecule": "COC(=O)[C@H]1CCN1c1ccc2c(c1)Oc1cc(N3CC[C@@H]3C(=O)OC)ccc1C21C(=[N+]=[N-])C(=O)c2ccc(C(=O)NCCOCCOCCCCCCCl)cc21", "note": "[Example 6, Dimethyl 1,1′-(6-((2-(2-((6-chlorohexyl)oxy)ethoxy)ethyl)carbamoyl)-2-diazo-3-oxo-2,3-dihydrospiro[indene-1,9′-xanthene]-3′,6′-diyl)(2R,2′R)-bis(azetidine-2-carboxylate)]", "values": [{"measurement": "Fold reduction in nonspecific labeling", "setting": "Table 4a", "value": "1-5"}, {"measurement": "Fold reduction in nonspecific labeling", "setting": "[1]", "value": "1-5"}]}, {"molecule": "[N-]=[N+]=C1C(=O)c2ccc(C(=O)NCCOCCOCCCCCCCl)cc2C12c1ccc(N3CC(O)C3)cc1Oc1cc(N3CC(O)C3)ccc12", "note": "[Example 7, N-(2-(2-((6-chlorohexyl)oxy)ethoxy)ethyl)-2-diazo-3′,6′-bis(3-hydroxyazetidin-1-yl)-3-oxo-2,3-dihydrospiro[indene-1,9′-xanthene]-6-carboxamide]", "values": [{"measurement": "Fold reduction in nonspecific labeling", "setting": "Table 4a", "value": ">10"}, {"measurement": "Fold reduction in nonspecific labeling", "setting": "[1]", "value": ">10"}]}, {"molecule": "CN(CCOCCOCCCCCCCl)C(=O)c1ccc2c(c1)C1(C(=[N+]=[N-])C2=O)c2ccc(N3CCC3)cc2Oc2cc(N3CCC3)ccc21", "note": "[Example 8, 3′,6′-di(azetidin-1-yl)-N-(2-(2-((6-chlorohexyl)oxy)ethoxy)ethyl)-2-diazo-N-methyl-3-oxo-2,3-dihydrospiro[indene-1,9′-xanthene]-6-carboxamide]", "values": [{"measurement": "Fold reduction in nonspecific labeling", "setting": "Table 4a", "value": "5-10"}, {"measurement": "Fold reduction in nonspecific labeling", "setting": "[1]", "value": "5-10"}]}, {"molecule": "[N-]=[N+]=C1C(=O)c2ccc(C(=O)NCCOCCOCCCCCCCl)cc2C12c1ccc(N3CC(C(=O)N4CCOCC4)C3)cc1Oc1cc(N3CC(C(=O)N4CCOCC4)C3)ccc12", "note": "[Example 9, N-(2-(2-((6-chlorohexyl)oxy)ethoxy)ethyl)-2-diazo-3′,6′-bis(3-(morpholine-4-carbonyl)azetidin-1-yl)-3-oxo-2,3-dihydrospiro[indene-1,9′-xanthene]-6-carboxamide]", "values": [{"measurement": "Fold reduction in nonspecific labeling", "setting": "Table 4a", "value": ">10"}, {"measurement": "Fold reduction in nonspecific labeling", "setting": "[1]", "value": ">10"}]}, {"molecule": "[N-]=[N+]=C1C(=O)c2ccc(C(=O)NCCOCCOCCCCCCCl)cc2C12c1ccc(N3CC(C(=O)N4CCCC4)C3)cc1Oc1cc(N3CC(C(=O)N4CCCC4)C3)ccc12", "note": "[Example 10, N-(2-(2-((6-chlorohexyl)oxy)ethoxy)ethyl)-2-diazo-3-oxo-3′,6′-bis(3-(pyrrolidine-1-carbonyl)azetidin-1-yl)-2,3-dihydrospiro[indene-1,9′-xanthene]-6-carboxamide]", "values": [{"measurement": "Fold reduction in nonspecific labeling", "setting": "Table 4a", "value": "5-10"}, {"measurement": "Fold reduction in nonspecific labeling", "setting": "[1]", "value": "5-10"}]}, {"molecule": "CN1CCN(C(=O)C2CN(c3ccc4c(c3)Oc3cc(N5CC(C(=O)N6CCN(C)CC6)C5)ccc3C43C(=[N+]=[N-])C(=O)c4ccc(C(=O)NCCOCCOCCCCCCCl)cc43)C2)CC1", "note": "[Example 11, N-(2-(2-((6-chlorohexyl)oxy)ethoxy)ethyl)-2-diazo-3′,6′-bis(3-(4-methylpiperazine-1-carbonyl)azetidin-1-yl)-3-oxo-2,3-dihydrospiro[indene-1,9′-xanthene]-6-carboxamide]", "values": [{"measurement": "Fold reduction in nonspecific labeling", "setting": "Table 4a", "value": "1-5"}, {"measurement": "Fold reduction in nonspecific labeling", "setting": "[1]", "value": "1-5"}]}, {"molecule": "CNC(=O)C1CN(c2ccc3c(c2)Oc2cc(N4CC(C(=O)NC)C4)ccc2C32C(=[N+]=[N-])C(=O)c3ccc(C(=O)NCCOCCOCCCCCCCl)cc32)C1", "note": "[Example 12, 1,1′-(6-((2-(2-((6-chlorohexyl)oxy)ethoxy)ethyl)carbamoyl)-2-diazo-3-oxo-2,3-dihydrospiro[indene-1,9′-xanthene]-3′,6′-diyl)bis(N-methylazetidine-3-carboxamide)]", "values": [{"measurement": "Fold reduction in nonspecific labeling", "setting": "Table 4a", "value": ">10"}, {"measurement": "Fold reduction in nonspecific labeling", "setting": "[1]", "value": ">10"}]}, {"molecule": "CN(C)C1CN(c2ccc3c(c2)Oc2cc(N4CC(N(C)C)C4)ccc2C32C(=[N+]=[N-])C(=O)c3ccc(C(=O)NCCOCCOCCCCCCCl)cc32)C1", "note": "[Example 13, N-(2-(2-((6-chlorohexyl)oxy)ethoxy)ethyl)-2-diazo-3′,6′-bis(3-(dimethylamino)azetidin-1-yl)-3-oxo-2,3-dihydrospiro[indene-1,9′-xanthene]-6-carboxamide]", "values": [{"measurement": "Fold reduction in nonspecific labeling", "setting": "Table 4a", "value": "5-10"}, {"measurement": "Fold reduction in nonspecific labeling", "setting": "[1]", "value": "5-10"}]}, {"molecule": "CN(C)C(=O)[C@@H]1CCN1c1ccc2c(c1)Oc1cc(N3CC[C@H]3C(=O)N(C)C)ccc1C21C(=[N+]=[N-])C(=O)c2ccc(C(=O)NCCOCCOCCCCCCCl)cc21", "note": "[Example 14, (2S,2′S)-1,1′-(6-((2-(2-((6-chlorohexyl)oxy)ethoxy)ethyl)carbamoyl)-2-diazo-3-oxo-2,3-dihydrospiro[indene-1,9′-xanthene]-3′,6′-diyl)bis(N,N-dimethylazetidine-2-carboxamide)]", "values": [{"measurement": "Fold reduction in nonspecific labeling", "setting": "Table 4a", "value": ">10"}, {"measurement": "Fold reduction in nonspecific labeling", "setting": "[1]", "value": ">10"}]}, {"molecule": "[N-]=[N+]=C1C(=O)c2ccc(C(=O)NCCOCCOCCCCCCCl)cc2C12c1ccc(N3CC[C@@H]3CO)cc1Oc1cc(N3CC[C@@H]3CO)ccc12", "note": "[Example 15, N-(2-(2-((6-chlorohexyl)oxy)ethoxy)ethyl)-2-diazo-3′,6′-bis((R)-2-(hydroxymethyl)azetidin-1-yl)-3-oxo-2,3-dihydrospiro[indene-1,9′-xanthene]-6-carboxamide]", "values": [{"measurement": "Fold reduction in nonspecific labeling", "setting": "Table 4a", "value": "5-10"}, {"measurement": "Fold reduction in nonspecific labeling", "setting": "[1]", "value": "5-10"}]}, {"molecule": "CN(C)C(=O)[C@H]1CCN(c2ccc3c(c2)Oc2cc(N4CC[C@H](C(=O)N(C)C)C4)ccc2C32C(=[N+]=[N-])C(=O)c3ccc(C(=O)NCCOCCOCCCCCCCl)cc32)C1", "note": "[Example 16, (3S,3′S)-1,1′-(6-((2-(2-((6-chlorohexyl)oxy)ethoxy)ethyl)carbamoyl)-2-diazo-3-oxo-2,3-dihydrospiro[indene-1,9′-xanthene]-3′,6′-diyl)bis(N,N-dimethylpyrrolidine-3-carboxamide)]", "values": [{"measurement": "Fold reduction in nonspecific labeling", "setting": "Table 4a", "value": "5-10"}, {"measurement": "Fold reduction in nonspecific labeling", "setting": "[1]", "value": "5-10"}]}, {"molecule": "[N-]=[N+]=C1C(=O)c2ccc(C(=O)NCCOCCOCCCCCCCl)cc2C12c1ccc(N3C4COCC3C4)cc1Oc1cc(N3C4COCC3C4)ccc12", "note": "(centres unmarked) [Example 17, 3′,6′-di(3-oxa-6-azabicyclo[3.1.1]heptan-6-yl)-N-(2-(2-((6-chlorohexyl)oxy)ethoxy)ethyl)-2-diazo-3-oxo-2,3-dihydrospiro[indene-1,9′-xanthene]-6-carboxamide]", "values": [{"measurement": "Fold reduction in nonspecific labeling", "setting": "Table 4a", "value": "1-5"}, {"measurement": "Fold reduction in nonspecific labeling", "setting": "[1]", "value": "1-5"}]}, {"molecule": "CN1CC2CC(C1)N2c1ccc2c(c1)Oc1cc(N3C4CC3CN(C)C4)ccc1C21C(=[N+]=[N-])C(=O)c2ccc(C(=O)NCCOCCOCCCCCCCl)cc21", "note": "(centres unmarked) [Example 18, N-(2-(2-((6-chlorohexyl)oxy)ethoxy)ethyl)-2-diazo-3′,6′-bis(3-methyl-3,6-diazabicyclo[3.1.1]heptan-6-yl)-3-oxo-2,3-dihydrospiro[indene-1,9′-xanthene]-6-carboxamide]", "values": [{"measurement": "Fold reduction in nonspecific labeling", "setting": "Table 4a", "value": ">10"}, {"measurement": "Fold reduction in nonspecific labeling", "setting": "[1]", "value": ">10"}]}, {"molecule": "CN(C)C(=O)C1CN(c2ccc3c(c2)[Si](C)(C)c2cc(N4CC(C(=O)N(C)C)C4)ccc2C32C(=[N+]=[N-])C(=O)c3ccc(C(=O)NCCOCCOCCCCCCCl)cc32)C1", "note": "[Example 19, 1,1′-(6′-((2-(2-((6-chlorohexyl)oxy)ethoxy)ethyl)carbamoyl)-2′-diazo-5,5-dimethyl-3′-oxo-2′,3′-dihydro-5H-spiro[dibenzo[b,e]siline-10,1′-indene]-3,7-diyl)bis(N,N-dimethylazetidine-3-carboxamide)]", "values": [{"measurement": "Fold reduction in nonspecific labeling", "setting": "[1]", "value": ">10"}]}, {"molecule": "O=C1OC2(c3ccc(N4CCC4)cc3Oc3cc(N4CCC4)ccc32)c2cc(NCCOCCOCCCCCCCl)ccc21", "note": "[Example 21, 3′,6′-di(azetidin-1-yl)-6-((2-(2-((6-chlorohexyl)oxy)ethoxy)ethyl)amino)-3H-spiro[isobenzofuran-1,9′-xanthen]-3-one]", "values": [{"measurement": "Fold reduction in nonspecific labeling", "setting": "[1]", "value": "5-10"}]}, {"molecule": "[N-]=[N+]=C1C(=O)c2ccc(NC(=O)CCOCCOCCCCCCCl)cc2C12c1ccc(N3CCC3)cc1Oc1cc(N3CCC3)ccc12", "note": "[Example 22, 3-(2-((6-chlorohexyl)oxy)ethoxy)-N-(3′,6′-di(azetidin-1-yl)-2-diazo-3-oxo-2,3-dihydrospiro[indene-1,9′-xanthen]-6-yl)propanamide]", "values": [{"measurement": "Fold reduction in nonspecific labeling", "setting": "[1]", "value": "5-10"}]}, {"molecule": "[N-]=[N+]=C1C(=O)c2ccc(CCCCOCCOCCCCCCCl)cc2C12c1ccc(N3CCC3)cc1Oc1cc(N3CCC3)ccc12", "note": "[Example 24, 3′,6′-di(azetidin-1-yl)-6-(4-(2-((6-chlorohexyl)oxy)ethoxy)butyl)-2-diazospiro[indene-1,9′-xanthen]-3(2H)-one]", "values": [{"measurement": "Fold reduction in nonspecific labeling", "setting": "[1]", "value": "1-5"}]}, {"molecule": "[N-]=[N+]=C1C(=O)c2ccc(OCCCOCCOCCCCCCCl)cc2C12c1ccc(N3CCC3)cc1Oc1cc(N3CCC3)ccc12", "note": "[Example 25, 3′,6′-di(azetidin-1-yl)-6-(3-(2-((6-chlorohexyl)oxy)ethoxy)propoxy)-2-diazospiro[indene-1,9′-xanthen]-3(2H)-one]", "values": [{"measurement": "Fold reduction in nonspecific labeling", "setting": "[1]", "value": "<1"}]}, {"molecule": "CN(CCOCCOCCCCCCCl)Cc1ccc2c(c1)C1(C(=[N+]=[N-])C2=O)c2ccc(N3CCC3)cc2Oc2cc(N3CCC3)ccc21", "note": "[Example 26, 3′,6′-di(azetidin-1-yl)-6-(((2-(2-((6-chlorohexyl)oxy)ethoxy)ethyl)(methyl)amino)methyl)-2-diazospiro[indene-1,9′-xanthen]-3(2H)-one]", "values": [{"measurement": "Fold reduction in nonspecific labeling", "setting": "[1]", "value": "<1"}]}]}
